Experimental data as given in patent publication US7927849B2, “Laccase enzyme and use thereof” (AB Enzymes OY, priority 2004, dated 2011).
Like-named read-outs stand apart in the source and are kept apart here.

Assays:
[1] = target: T1, Melanocarpus albomyces laccase MaL (Melanocarpus albomyces, UniProt Q70KY3); experiment: Kinetic parameters of Melanocarpus albomyces laccase MaL (comparison); format: biochemical
T1 sequence (Q70KY3 51-609): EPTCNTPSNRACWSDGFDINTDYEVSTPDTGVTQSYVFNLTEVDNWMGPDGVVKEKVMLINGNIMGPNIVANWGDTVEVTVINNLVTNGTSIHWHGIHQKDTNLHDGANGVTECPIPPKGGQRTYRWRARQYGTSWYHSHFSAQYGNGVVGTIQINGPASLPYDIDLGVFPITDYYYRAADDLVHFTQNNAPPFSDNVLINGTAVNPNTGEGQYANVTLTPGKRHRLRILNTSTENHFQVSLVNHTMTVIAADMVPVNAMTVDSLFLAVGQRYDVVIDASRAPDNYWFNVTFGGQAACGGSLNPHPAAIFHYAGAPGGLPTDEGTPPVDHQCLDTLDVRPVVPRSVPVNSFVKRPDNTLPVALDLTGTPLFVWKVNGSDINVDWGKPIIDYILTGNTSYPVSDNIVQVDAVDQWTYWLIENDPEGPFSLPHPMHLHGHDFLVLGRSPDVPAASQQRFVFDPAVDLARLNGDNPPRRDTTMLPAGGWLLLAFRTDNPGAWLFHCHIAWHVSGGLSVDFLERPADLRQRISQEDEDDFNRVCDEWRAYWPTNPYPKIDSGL
Method: (§1) On syringaldazin and DMP 40 mM MES buffer, pH 6 and 25 mM succinate buffer. All activity assays were carried out at 25° C. Kinetic parameters were estimated by a nonlinear regression curve fit. The values were compared to those of Melanocarpus albomyces MaL, laccase.

[2] = target: T2, Thielavia arenaria ALKO4197 laccase TaLcc1, recombinant (rTaLcc1, expressed in Trichoderma reesei), SEQ ID NO: 12 (Canariomyces arenarius, UniProt F6N9E7); format: biochemical
T2 construct: predicted mature residues 22-604; no tag stated
T2 sequence (F6N9E7 with tags, fused parts or gaps): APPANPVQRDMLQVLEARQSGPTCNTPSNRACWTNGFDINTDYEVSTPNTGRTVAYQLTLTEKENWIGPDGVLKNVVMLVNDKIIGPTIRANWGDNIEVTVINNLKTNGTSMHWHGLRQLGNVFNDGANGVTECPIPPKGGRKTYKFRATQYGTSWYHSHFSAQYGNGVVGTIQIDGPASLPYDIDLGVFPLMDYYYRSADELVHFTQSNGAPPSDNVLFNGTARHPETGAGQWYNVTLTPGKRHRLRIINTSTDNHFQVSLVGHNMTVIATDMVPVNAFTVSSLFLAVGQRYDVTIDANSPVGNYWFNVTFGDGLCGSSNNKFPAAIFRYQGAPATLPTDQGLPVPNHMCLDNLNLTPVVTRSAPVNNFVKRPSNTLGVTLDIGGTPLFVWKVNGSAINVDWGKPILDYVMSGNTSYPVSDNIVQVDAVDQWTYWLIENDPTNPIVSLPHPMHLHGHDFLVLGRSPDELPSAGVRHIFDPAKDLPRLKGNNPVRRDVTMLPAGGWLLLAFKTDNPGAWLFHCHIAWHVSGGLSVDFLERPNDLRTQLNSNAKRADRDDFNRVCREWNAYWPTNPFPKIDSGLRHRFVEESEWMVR
Method: as §1

[3] = Denim bleaching: laccase-mediator (100 nkat/g, 5 mg/g, 30 min, 60° C.) compared to sodium hypochlorite (15 min, 40° C.)
Method: Different types of demin were treated with a TaLcc1 laccase product from Trichoderma strain RF5597 and DeniLite II Base from Novozymes and the results obtained were compared to hypochlorite bleaching. All together 27 pieces of different kinds of denim (whole jeans), which had been previously washed with cellulase after desizing to different abrasion levels or had been only desized with ECOSTONE®A200 (60° C., 10 min), were collected for the test (Table 15). The jeans were made of Indigo dyed denim, except the English jeans contained Indigo dyed denim with sulphur bottom. Jeans were cut in such a way that pieces from the same pair of jeans could be used for all tests.
The jeans were made of Indigo dyed denim (right hand twill), except the English jeans contained Indigo dyed denim with sulphur bottom. The weights of the original (i.e. not desized) denim fabrics were typically higher than 475 g/m^2 (14 oz/yd^2). The weights of three 10 cm×10 cm pieces were measured after 24 hours incubation at room temperature (ca. 22° C. and at relative moisture ca. 64%).
The laccase treatments were performed with Electrolux's Wascator FOM 71 CLS washer extractor under optimal conditions for each enzyme, described in Table 16. Methyl syringate (Example 7) was used as a mediator. Laccase was inactivated after draining by raising the pH above 11 by NaOH (10 min, 60° C.) and rinsing for three times. The fabrics were dried in a tumbler.
The sodium hypochlorite bleaching was performed with Electrolux's Wascator FOM 71 CLS washer extractor using denim obtained from the same jeans as in laccase treatments under conditions described in Table 17. Sodium hydroxide was added before adding 25 ml/l of 10% sodium hypochlorite solution (Klorite Forte, Farmos Oy) to keep the pH above 10.5 during the treatment. After draining the bleach liquor, there was one 2 minutes rinsing step with the liquor ratio of 1:20 before dechlorinating with sodium thiosulphate. After dechlorinating the denim samples were rinsed 3 times for 2 minutes with the liquor ratio of 1:20. The fabrics were dried in a tumbler.
The bleaching effect was evaluated by measuring the colour as reflectance values as in Example 7. […] Different looks were obtained depending on the type of the denim and cellulase treatment used. “Sulphur-bottom type” denim was the most difficult to bleach.

[4] = substrate: COc1cc(/C=N/N=C/c2cc(OC)c(O)c(OC)c2)cc(OC)c1O; experiment: purified protein, by the assay type; format: biochemical, Thielavia arenaria; conditions: other: syringaldazin and DMP, 40 mM MES buffer, pH 6 and 25 mM succinate buffer, 25° C.
Method: as §1

[5] = syringaldazin and DMP, 40 mM MES buffer, pH 6 and 25 mM succinate buffer, 25° C.
[6] = sample B1: Basic Jeans, Ecostone P1250
[7] = sample E1: English jeans (sulphur bottom), desized only
[8] = sample E2: English jeans, Ecostone NP2000
[9] = sample E3: English jeans, Rocksoft NCE-EA
[10] = sample E4: English jeans, Rocksoft NCE-2X
[11] = sample E5: English jeans, Ecostone L900
[12] = sample E6: English jeans, Ecostone L900
[13] = sample E7: English jeans, Ecostone L900
[14] = sample L1: Lee Cooper jeans, desized only
[15] = sample L2: Lee Cooper jeans, Ecostone L
[16] = sample L3: Lee Cooper jeans, Biotouch C29
[17] = sample L4: Lee Cooper jeans, Ecostone L
[18] = sample L5: Lee Cooper jeans, Indiage Max L
[19] = sample L6: Lee Cooper jeans, Indiage Super L
[20] = sample L7: Lee Cooper jeans, Ecostone CXP500 Exper.
[21] = sample L8: Lee Cooper jeans, Ecostone CXP experimental
[22] = sample L9: Lee Cooper jeans, Ecostone N400
[23] = sample T1: Tincan jeans, desized only
[24] = sample T2: Tincan jeans, Ecostone N400
[25] = sample T3: Tincan jeans, Ecostone L300
[26] = sample T4: Tincan jeans, Denimax 991S
[27] = sample W1: Warric jeans, desized only
[28] = sample W2: Warric jeans, Ecostone P4500
[29] = sample W3: Warric jeans, Indiage Max G
[30] = sample W4: Warric jeans, Ecostone NP2000
[31] = sample W5: Warric jeans, Ecostone L900
[32] = sample W6: Warric jeans, Denabraide MBL 65 E
[33] = ABTS, 25 mM succinate buffer, pH 4.5, 25° C.

## COc1cc(/C=N/N=C/c2cc(OC)c(O)c(OC)c2)cc(OC)c1O [Syringaldazin, syringaldazine]
[1]; [5]
  kcat: 78.5 s⁻¹

## COc1cccc(OC)c1O [DMP, 2,6-dimethoxy phenol]
[2]; [5]
  kcat: 67.17 s⁻¹
[1]; [5]
  kcat: 69.33 s⁻¹

## OCl [sodium hypochlorite, reference compound]
[3]; [6]
  L* after treatment: 40.62
  b* after treatment: −17.37
[3]; [7]
  L* after treatment: 21.91
  b* after treatment: −15.03
[3]; [8]
  L* after treatment: 33.30
  b* after treatment: −16.43
[3]; [9]
  Increase of L*: 9.40
  L* after treatment: 34.13
  b* after treatment: −16.73
[3]; [10]
  L* after treatment: 35.83
  b* after treatment: −16.86
[3]; [11]
  L* after treatment: 33.85
  b* after treatment: −16.48
[3]; [12]
  L* after treatment: 30.61
  b* after treatment: −16.65
[3]; [13]
  L* after treatment: 32.36
  b* after treatment: −16.75
[3]; [14]
  L* after treatment: 31.23
  b* after treatment: −20.83
[3]; [15]
  L* after treatment: 44.11
  b* after treatment: −18.60
[3]; [16]
  L* after treatment: 39.71
  b* after treatment: −19.67
[3]; [17]
  L* after treatment: 40.63
  b* after treatment: −19.25
[3]; [18]
  L* after treatment: 39.47
  b* after treatment: −19.48
[3]; [19]
  L* after treatment: 41.50
  b* after treatment: −18.68
[3]; [20]
  L* after treatment: 37.91
  b* after treatment: −19.85
[3]; [21]
  L* after treatment: 40.74
  b* after treatment: −19.12
[3]; [22]
  L* after treatment: 40.82
  b* after treatment: −18.82
[3]; [23]
  L* after treatment: 33.97
  b* after treatment: −17.95
[3]; [24]
  L* after treatment: 34.38
  b* after treatment: −18.22
[3]; [25]
  L* after treatment: 40.33
  b* after treatment: −18.30
[3]; [26]
  L* after treatment: 37.66
  b* after treatment: −18.58
[3]; [27]
  L* after treatment: 27.75
  b* after treatment: −18.76
[3]; [28]
  L* after treatment: 39.35
  b* after treatment: −17.39
[3]; [29]
  L* after treatment: 41.11
  b* after treatment: −16.79
[3]; [30]
  L* after treatment: 38.07
  b* after treatment: −17.33
[3]; [31]
  L* after treatment: 37.12
  b* after treatment: −18.03
[3]; [32]
  L* after treatment: 36.65
  b* after treatment: −17.95

## CCn1c(=NN=c2sc3cc(S(=O)(=O)O)ccc3n2CC)sc2cc(S(=O)(=O)O)ccc21 [ABTS, 2,2′azinobis-3-ethylbenzthiazole-6-sulphonate]
[2]; [33]
  Km: 75 µM
  kcat: 68.83 s⁻¹
[1]; pH 4.5
  kcat: 78.17 s⁻¹

B1: Thielavia arenaria ALKO4197 laccase TaLcc1, recombinant (rTaLcc1, expressed in Trichoderma reesei), SEQ ID NO: 12 (Canariomyces arenarius) (protein)
chain: T2 sequence (F6N9E7 with tags, fused parts or gaps)
notes: predicted mature residues 22-604; no tag stated
[4]
  Km: 4.3 µM
  kcat: 32.3 s⁻¹
  kcat/Km: 7.52e+06 M⁻¹ s⁻¹
